For data set [1], the system named is human glioblastoma cells. Briefly: Bioluminescence substrate permeation in luciferase-expressing glioblastoma cells. Particulars: TTFields exposure. In kind it is cell-based.
Source text: Bioluminescence imaging: For all bioluminescence work, we used genetically-modified GBM2, GBM39 and U87-MG whereby the glioblastoma cells were transfected with lentiviral vectors that expressed either firefly luciferase (fLuc for GBM39) or a fusion protein of GFP and firefly luciferase (GFP/fLuc for GBM2 and eGFP-fLuc for U87-MG) or a Renilla luciferase-Red Fluorescence protein fusion (RLuc-RL8 for KR158B).
Data set [2] relates to U87-MG/eGFP-fLuc cells. Briefly: Reversibility of TTFields-induced uptake. In kind it is cell-based, human. Particulars: TTFields 24 h vs none vs TTFields 24 h followed by no TTFields 24 h. On the procedure:
To assess the reversibility of the effect of TTFields on cancer cells, U87-MG/eGFP-fLuc cells were subjected to three conditions: (1) No TTFields exposure, standard cell culture conditions (37° C., […], 5% CO2), (2) TTFields exposure for 24 h and (3) TTFields exposure for 24 h followed by no TTFields exposure for 24 h. The readouts of BLI, PpIX fluorescence (5-ALA product) and Dextran-FITC (4 kDa) fluorescence were acquired. All experimental conditions were done in triplicate. […] Here, NS=not significant; BLI=bioluminescent imaging; eGFP=enhanced green fluorescence protein; fLuc=firefly luciferase; 5-ALA=5 aminolevulinic acid; FITC=fluorescein isothiocyanate; PpIX=protoporphyrin IX; and FL=fluorescence.
In vitro tumor treating field apparatus: The coverslips were transferred to a ceramic dish of the Inovitro™ system, which in turn was mounted onto Inovitro™ base plates (Novocure Ltd., Haifa, Israel). Tumor treating fields at 200 kHz (1-4 V/cm) were applied through an Inovitro™ power generator. Incubator ambient temperatures spanned 20-27° C. with a target temperature of 37° C. in the ceramic dishes upon application of the TTFields. Duration of TTFields exposure lasted anywhere from 0.5 to 72 h, after which coverslips were removed and processed for the appropriate bioassays (see below). […]

Data set [3] concerns BBB of rat brain. Briefly: Evans Blue accumulation in rat brain after alternating electric fields. Format: in vivo. The following applies: 100 kHz fields 72 h vs sham heat/control. An excerpt: A set of in vivo experiments on rats was also run to quantify the increase in vessel permeability caused by exposure to the alternating electric fields. These experiments used Evans Blue (EB) dye, which is an azo dye that has a very high affinity for serum albumin (molecule size ˜69 kDa). Because of its large molecule size, serum albumin will ordinarily not be able to get past the BBB.
This was accomplished by shaving each rat's head, positioning a first pair of capacitively coupled electrodes on the top and bottom of the rat's head, and positioning a second pair of capacitively coupled electrodes on the left and right sides of the rat's head. A 100 kHz AC voltage was then applied between the top and bottom electrodes for 1 second, followed by a 100 kHz AC voltage applied between the right and left electrodes for 1 second, in a repeating sequence.
Under the conditions indicated in Table 1 and for the times indicated on Table 1, EB was injected intravenously into the tail vein under anesthesia (Once injected, EB immediately binds to Albumin), and the EB was allowed to circulate for 2 hours in all cases. The following steps were then performed: (a) intracardiac perfusion with saline; (b) brains are sliced in four pieces with a brain slicer; (c) pieces were photographed to localize staining and weighted; (d) EB extraction after tissue homogenization with TCA 50% (1:3) and centrifuge and (e) EB quantification at 610 nm. Results are given as μg EB per g tissue.
During the experiment, two animals from group 2 and one animal from group 4 were excluded (disrupted treatment, failure to inject EB into the tail vein). There were no differences between the animals treated with alternating electric fields (groups 1 and 2) and therefore these animals were grouped together. Similarly, there were no differences between sham heat and control animals (groups 3 and 4) and therefore these animals were grouped together.
EB accumulation in these four specific sections was then measured. In addition, a computer simulation was performed to determine the field strength in each of these four sections. […]

Data set [4] relates to BBB of rat brain. Briefly: DCE-MRI of gadolinium contrast agent accumulation in rat brain. Particulars: for contrast agent accumulation in the brain tissue after recovery: 100 kHz fields 72 h followed by 96 h without fields. In kind it is in vivo. On the procedure:
Yet another set of in vivo experiments was performed using Dynamic Contrast Enhanced MRI (DCE-MRI) with intravenous injection of Gadolinium contrast agent (Gd-DTPA, Magnetol, MW 547). In these experiments, test rats were treated with 100 kHz alternating electric fields for 72 h, and control rats were not treated with alternating electric fields for the same period of time. After this 72 h period, the alternating electric field was turned off, the rats were anesthetized, and a series of 60 Tlw MRI scans (each of the scans having a duration of 28 seconds) was acquired. The gadolinium contrast agent was injected into the rat's tail vein during the 7th of these 60 scans.
The image analysis for each rat included (1) determining a baseline for each voxel by calculating the mean of the first six Tlw MRI scans for each voxel (i.e., the scans prior to the injection of the gadolinium); (2) computing voxel by voxel, the percent signal change (i.e., gadolinium accumulation) over time relative to the baseline; (3) segmenting the brain into anterior, middle, and posterior segments; (4) generating for each of the three segments the mean percent signal change with respect to the baseline over all the voxels in the respective segment and then (5) averaging 4 consecutive time points (i.e. 4 scans) together. Finally, the data from all of the rats within any given group were averaged together.
To test whether this increase in permeability of the BBB was temporary, the same test conditions were repeated, but followed with an additional 96 hours without alternating electric fields. After this 96 hour period, a series of 60 Tlw MM scans (each of the scans having a duration of 28 seconds) was acquired using the same procedure described above (including the gadolinium injection). The results of this portion of the DCE-MM experiment for each of the three segments of the brain are also depicted in FIG. 8. […] From this we can conclude that the permeability of the BBB returns to normal after the alternating electric fields are discontinued.
The relationship between the intensity of the alternating electric fields and the impact of those fields on BBB integrity and permeability was also apparent from in vivo experiments in rats using serial dynamic contrast-enhanced (DCE) MM to measure gadolinium (Gd) uptake after 100 kHz alternating electric fields were applied for 72 hours. The rat's brains were segmented into three regions (anterior, posterior, and middle), and simulations of the alternating electric fields delivery to those three regions yielded field strengths of 1.5±0.6 V/cm RMS, 2.1±1.2 V/cm RMS, and 2.7±1.7 V/cm RMS respectively. […] These findings also indicate that the cells' response to alternating electric fields depends on the intensity of the fields.

Data set [5] has as its system GBM39/Luc cells. Kind of data set: Drug sensitivity / synergy with TTFields. Format: cell-based, human.
Data set [6] relates to GBM F98 cells. Kind of data set: Paclitaxel plus alternating electric fields in orthotopic glioblastoma rats. In kind it is in vivo, rat. Here is the method:
Another set of in vivo experiments was performed to determine whether paclitaxel (PTX, which is a drug that ordinarily cannot traverse the BBB) can make it across the BBB when the subject is treated with alternating electric fields. In one of these experiments, glioblastoma was induced in rats by injecting them orthotopically with GBM F98 cells on day 0 of the experiment. On day 6, a first set of MRI scans of each rat's brains was obtained. Alternating electric fields at 100 kHz were applied to all the rats on days 7 through 10. On day 10 (i.e., after applying the fields for 72 hours), some of the rats were injected i.p. with 25 mg/kg PTX, while other rats were not injected. Subsequently, on day 13 (i.e., 3 days post PTX administration), a second set of MRI scans of each rat's brain was obtained. Ki67 (red) and DAPI (blue) staining was evaluated for the test and control rats.
A similar experiment using a 15 mg/kg dose of PTX was performed, except that instead of quantifying the Ki67/DAPI ratio on day 13, Mill scans and post mortem tissue sections were used to determine the fold increase of the tumor volume on day 15. The tumor volumes from these experiments are depicted in FIG. 11. […] And the inventors have concluded that the alternating electric fields allow the PTX (or metabolites thereof) to cross the BBB.

In data set [7] the target is T1, firefly luciferase (Photinus pyralis, UniProt P08659).
T1 construct: purchased Sigma Aldrich Inc (St. Louis, Mo.) SRE0045-2MG
Kind of data set: Activity of purified firefly luciferase under TTFields. Format: biochemical. Here is the method:
U87-MG/eGFP-fLuc cells were seeded on Thermanox glass coverslips, allowed to settle and grow, and then subjected to either TTFields or no TTFields. […] This increase in BLI occurred as early as 30 minutes after commencement of TTFields and continued to 24 h of TTFields exposure. […] Without being bound by this theory, it is believed that the elevation in bioluminescence was not due to a direct effect of TTFields on firefly luciferase activity because exposure of purified firefly luciferase to 200 kHz TTFields led to over a 1000-fold loss in enzymatic activity 60 minutes after initiation of TTFields.
FIG. 16B depicts the effect of TTFields on eGFP fluorescence in U87-MG/eGFP-fLuc cells observed from time course of representative images (not shown) for TTFields-exposed vs. TTFields-unexposed U87-MG/eGFP-fLuc. […] More specifically, FIG. 16C depicts the effect of TTFields on the fLuc bioluminescence (fLuc-BLI) over eGFP fluorescence (eGFP-FL) ratio for U87-MG/eGFP-fLuc cells as a function of length of TTFields exposure; and FIG. 16D depicts the effect of TTFields exposure vs. non-exposure on the fLuc-BLI/eGFP-FL ratio as a function of TTFields exposure time (hours).

T1 sequence (P08659 whole entry): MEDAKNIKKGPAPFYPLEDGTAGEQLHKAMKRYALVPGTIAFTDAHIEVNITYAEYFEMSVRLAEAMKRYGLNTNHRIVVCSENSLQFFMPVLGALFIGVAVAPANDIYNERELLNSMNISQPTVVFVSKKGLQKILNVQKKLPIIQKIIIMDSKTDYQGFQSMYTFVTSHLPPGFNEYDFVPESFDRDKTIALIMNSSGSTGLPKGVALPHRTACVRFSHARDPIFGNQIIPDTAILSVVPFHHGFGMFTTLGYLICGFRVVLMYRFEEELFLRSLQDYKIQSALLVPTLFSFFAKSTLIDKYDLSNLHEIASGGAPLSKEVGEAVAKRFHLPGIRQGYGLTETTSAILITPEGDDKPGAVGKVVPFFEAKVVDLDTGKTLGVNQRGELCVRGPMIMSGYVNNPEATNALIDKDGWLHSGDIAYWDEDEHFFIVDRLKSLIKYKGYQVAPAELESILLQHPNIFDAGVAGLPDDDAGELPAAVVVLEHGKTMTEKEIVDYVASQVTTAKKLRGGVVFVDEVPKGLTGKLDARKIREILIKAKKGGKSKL

As to `O=C(O)[C@H]1CSC(c2nc3ccc(O)cc3s2)=N1` [D-luciferin], the “permeation of luciferase substrate through the plasma membrane” value in data set [1] is given as “increased permeation”. In addition, the “reversibility of increased uptake” value in data set [2] is “reversibly increase uptake”.

As to `Cc1cc(-c2ccc(/N=N/c3ccc4c(S(=O)(=O)O)cc(S(=O)(=O)O)c(N)c4c3O)c(C)c2)ccc1/N=N/c1ccc2c(S(=O)(=O)O)cc(S(=O)(=O)O)c(N)c2c1O` [EB, Evans Blue], in data set [3] (EB i.v., 2 h circulation), the “EB accumulation in posterior sections (3, 4)” value is listed as “smaller increase (that was not statistically significant)” and the “EB accumulation in sections 1, 2 (frontal cerebrum)” value is recorded as “statistically significant increase”. Besides, the “average EB accumulation in the rat brain, averaged over all four sections” value in data set [3] (p<0.05) is “higher accumulation”.

On to `O=C([O-])CN(CCN(CC(=O)[O-])CC(=O)O)CCN(CC(=O)[O-])CC(=O)O.[Gd+3]` [Gd-DTPA], for which the “Gd accumulation in the anterior part of the brain” value in data set [4] (100 kHz fields 72 h) is recorded as “no significant Gd accumulation”. The “signal enhancement in the middle and posterior brains” value in data set [4] (100 kHz fields 72 h, about 10 minutes after Gd injection, vs control rats) is on record as “significantly increased signal enhancement”. In addition, the “contrast agent accumulation in the brain tissue after recovery” value is “no significant accumulation” in data set [4] (listed as Gd) and “not significantly different” in data set [4] (listed as contrast agent). The “contrast agent accumulation in the brain tissue” value in data set [4] (100 kHz fields 72 h vs control rats) is listed as “significantly higher”. Moreover, the “spatial distribution of Gd enhancement” value in data set [4] (test rats, 20 to 23 minutes post-contrast administration) is reported as “distributed in the whole brain”.

Turning to `CCc1c2c(nc3ccc(OC(=O)N4CCC(N5CCCCC5)CC4)cc13)-c1cc3c(c(=O)n1C2)COC(=O)[C@]3(O)CC` [Irinotecan], the “synergy of TTFields plus drug” value in data set [5] is reported as “synergy was found”. Further, in data set [5] (TTFields for 3 days vs no TTFields), the “sensitivity of cells to drug” value is reported as “improves the sensitivity”.

With `CC(=O)O[C@H]1C(=O)[C@@]2(C)[C@H]([C@H](OC(=O)c3ccccc3)[C@]3(O)C[C@H](OC(=O)[C@H](O)[C@@H](NC(=O)c4ccccc4)c4ccccc4)C(C)=C1C3(C)C)[C@]1(OC(C)=O)CO[C@@H]1C[C@@H]2O` [PTX, paclitaxel], the “fold increase of the tumor volume” value in data set [6] (15 mg/kg PTX + 100 kHz fields vs heat only, heat+PTX, fields only, day 15) is “significant decrease in the fold tumor volume increase”. In addition, the “Ki67/DAPI ratio (cell proliferation in the GBM tumor)” value in data set [6] (25 mg/kg PTX i.p. after 72 h 100 kHz fields vs fields only, day 13) is listed as “significant decrease in cell proliferation”.

`Oc1ccc(Cc2nc3c(Cc4ccccc4)nc(-c4ccc(O)cc4)cn3c2O)cc1` [coelenterazine]: the “permeation of luciferase substrate through the plasma membrane” value in data set [1] is “increased permeation”.

For the molecule “firefly luciferase: purified firefly luciferase enzyme”, the “loss in enzymatic activity” value in data set [7] (200 kHz TTFields, 60 minutes after initiation) is on record as over 1000 fold. In addition, the “activity of purified firefly luciferase” value in data set [7] (TTFields vs no TTFields, p<0.01) was “significantly decreased activity”.

Source of the values: US20230009366A1, “Using Alternating Electric Fields at Different Frequencies to Increase Permeability of the Blood Brain Barrier and also to Provide Other Benefits” (Novocure GmbH, priority 2021, published 2023).
